Earlier results on two compounds are cited in patent publication US6306900A, “Enteric coated pharmaceutical compositions” (priority 1996, dated 2001).

What is called bioavailability is dose-corrected exposure relative to a reference, in per cent.

For series [1] the following is noted: W. A. Lee et al.
The conditions of series [2]: patients; origin not known.
The conditions of series [3]: in words.

The structures appear in SMILES notation.

Regarding `COc1c(C)c2c(c(O)c1C/C=C(\C)CCC(=O)OCCN1CCOCC1)C(=O)OC2` [MMF, mycophenolate mofetil], the bioavailability in series [1] is reported as 100%. Further, in series [2], the side-effects entry was “gastro-intestinal side effects”.

Take `COc1c(C)c2c(c(O)c1C/C=C(\C)CCC(=O)O)C(=O)OC2` [MPA, Mycophenolic acid]: the bioavailability in series [1] was 43%. Also, the known activity entry in series [3] is “anti-tumor, anti-viral, immunosuppressive, anti-psoriatic, and anti-inflammatory activity”.
